# Measured values as given in patent US20210379063A1, “ORAL AMINODIHYDROPHTHALAZINEDIONE COMPOSITIONS AND THEIR USE IN THE TREATMENT OF NON-VIRAL HEPATITIS” (Immunopharma Plus D.O.O., priority 2018, published 2021).
# Values joined by “and” are separate entries in the source; they are usually repeats but may differ in a detail not shown here. Identical values can stand only once. Like-named read-outs stand apart in the source and are kept apart here.
# Key:
# [1] = tested on: toxic hepatitis caused by Acetaminophen; details: for ALT / AST / AST/ALT / GTP / Biochemiluminescence of blood plasma (BCL, quant): Acetaminophen + Tamerit
# Procedure: The experiment was carried out on 45 adult male outbred white rats weighing 288.5±12.9 g, in accordance with the recommendations of the international ethics committees on the humane treatment of laboratory animals (EU Council Directive 86/609 EEC dated Nov. 24, 1986). To create an experimental model, an aqueous solution of Acetaminophen was administered intragastrically using a probe at a dosage of 110 mg/kg of body weight, which is about 2 times higher than the maximum allowable daily dose in humans. […] The drug was administered intragastrically, using a probe, in the form of an aqueous solution
# [2] = tested on: porcine large intestine (colon); experiment: Porcine large intestine permeability, Franz cell; details: for concentration in receptor comp, large intestine, AVG / concentration in receptor compartment, large intestine: 10 mM donor solution; for concentration in receptor compartment, large intestine: single chambers
# Procedure: The intestine was prepared so the mucous side will be facing the donor compartment.
# [3] = tested on: reparative liver regeneration after partial hepatectomy
# Excerpt: Reparative liver regeneration was caused by the removal of ⅔ mass of the organ—partial hepatectomy by G. M. Higgis, R. M. Anderson.
smiles,measurement,setting,value
"Nc1cccc2c(=O)[n-][nH]c(=O)c12.[Na+] [Tamerit, aminodihydrophthalazinedione sodium]",ALT,[1]; 3rd day,17.45 ± 1.3 U/L
same,AST,[1]; 3rd day,23.61 ± 1.2 U/L
same,AST/ALT,[1]; 3rd day,1.35 ± 0.03
same,GTP,[1]; 3rd day,35.8 ± 1.2 U/L
same,ALT,[1]; 5th day,12.2 ± 0.9 U/L
same,AST,[1]; 5th day,15.0 ± 1.0 U/L
same,AST/ALT,[1]; 5th day,1.24 ± 0.01
same,GTP,[1]; 5th day,33.8 ± 0.9 U/L
same,ALT,[1]; 7th day,12.0 ± 0.8 U/L
same,AST,[1]; 7th day,16.01 ± 2.0 U/L
same,AST/ALT,[1]; 7th day,1.33 ± 0.02
same,GTP,[1]; 7th day,30.8 ± 1.8 U/L
same,ALT,[1]; 12th day,18.0 ± 1.8 U/L
same,AST,[1]; 12th day,22.1 ± 1.5 U/L
same,AST/ALT,[1]; 12th day,1.22 ± 0.04
same,GTP,[1]; 12th day,29.4 ± 1.5 U/L
same,"Biochemiluminescence of blood plasma (BCL, quant)",[1]; 3 days,213.0 ± 4.0 quant
same,"Biochemiluminescence of blood plasma (BCL, quant)",[1]; 12 days,215.6 ± 5.0 quant
same,signs of toxic hepatitis,[1]; rats treated with Tamerit intragastrically,less pronounced
same,state of a solution containing 10 mM,,supersaturated solution
same,"permeability through large intestine tissue, in words",[2],good permeability
same,"concentration in receptor comp, large intestine, AVG",[2]; 0 min,0 ng/mL
same,"concentration in receptor compartment, large intestine",[2]; 0 min,0 ng/mL
same,"concentration in receptor comp, large intestine, AVG",[2]; 30 min,5000 ng/mL
same,"concentration in receptor comp, large intestine, AVG",[2]; 60 min,7000 ng/mL
same,"concentration in receptor comp, large intestine, AVG",[2]; 120 min,17000 ng/mL
same,"concentration in receptor comp, large intestine, AVG",[2]; 240 min,35000 ng/mL
same,"concentration in receptor compartment, large intestine","[2]; 240 min, sodium",30600 ng/mL and 25000 ng/mL and 36400 ng/mL and 49000 ng/mL
same,"concentration in receptor comp, large intestine, AVG",[2]; 360 min,48000 ng/mL
same,"concentration in receptor comp, large intestine, AVG",[2]; 720 min,90000 ng/mL
same,time to reach steady state of permeation,[2]; large intestinal tissue,four
same,"Recovery from donor comp, %","[2]; large intestine, 0 min",0.00%
same,mg in receptor comp,"[2]; large intestine, 0 min",0.000 mg
same,"Recovery from donor comp, %","[2]; large intestine, 30 min",0.45%
same,mg in receptor comp,"[2]; large intestine, 30 min",0.026 mg
same,"Recovery from donor comp, %","[2]; large intestine, 60 min",0.63%
same,mg in receptor comp,"[2]; large intestine, 60 min",0.036 mg
same,"Recovery from donor comp, %","[2]; large intestine, 120 min",1.46%
same,mg in receptor comp,"[2]; large intestine, 120 min",0.084 mg
same,"Recovery from donor comp, %","[2]; large intestine, 240 min",3.07%
same,mg in receptor comp,"[2]; large intestine, 240 min",0.176 mg
same,"Recovery from donor comp, %","[2]; large intestine, 360 min",4.20%
same,mg in receptor comp,"[2]; large intestine, 360 min",0.242 mg
same,Tamerit Permeability vs Propranolol Permeability,"[2]; large intestine, FIG. 11",permeates better than propranolol
same,permeation compared with Propranolol,"[2]; large intestine, after 4 hours",as good as Propranolol
same,"Mitotic index, %",[3]; hepatectomy 4 hours + Tamerit,2 ± 0.8 %
same,Nuclear cytoplasmic index,[3]; hepatectomy 4 hours + Tamerit,0.40 ± 0.005
same,"Number of binuclear cells, %",[3]; hepatectomy 4 hours + Tamerit,16.6 ± 1.69%
same,"The size of the nucleus of hepatocytes, μm",[3]; hepatectomy 4 hours + Tamerit,8.0 ± 0.26 μm
same,"Mitotic index, %",[3]; hepatectomy 17 hours + Tamerit,5.5 ± 1.3 %
same,Nuclear cytoplasmic index,[3]; hepatectomy 17 hours + Tamerit,0.319 ± 0.01
same,"Number of binuclear cells, %",[3]; hepatectomy 17 hours + Tamerit,29.83 ± 2.5 %
